PMC11087268, “A folate inhibitor exploits metabolic differences in Pseudomonas aeruginosa for narrow-spectrum targeting” (Nature Microbiology, 2024)
Several values for one entry are separate records, joined by “and”; a condition that tells them apart may be missing. Identical values can stand only once. Like-named read-outs stand apart in the source and are kept apart here.

What was measured:
[1] = system: Pseudomonas aeruginosa PA14; assay: MIC against P. aeruginosa PA14 in LB broth; type: cell-based
Procedure: (§1) Overnight cultures were diluted 1:150 in LB broth and added to a 96-well plate. Antibiotics were serially diluted 1:2 and added to columns of the 96-well plate and grown at 37 °C with continuous shaking. Cell growth was measured using optical density at 600 nm (OD600). MIC assays were performed in either BioTek Synergy HT or Tecan InfiniteM200 Pro microplate readers.

P. aeruginosa PA14 [2] = type: cell-based, Pseudomonas aeruginosa; conditions: PA14, 0.25 h
Procedure: Overnight P. aeruginosa PA14 or E. coli lptD4213 cultures were diluted 1:100 and grown to mid exponential phase at 37 °C. Cultures were diluted 1:10 into PBS and treated with antibiotics for 15 min. P. aeruginosa PA14 was stained with TO-PRO-3 (640 nm excitation, 670/30 nm emission) to measure cell membrane integrity. E. coli lptD4213 was stained with both TO-PRO-3 and DiOC2(3) (ThermoFisher B34950) to measure cell membrane integrity and membrane potential. DiOC2(3) was evaluated as a ratio of green (488 nm excitation, 525/50 nm emission) to red (488 nm excitation, 610/20 nm emission)[66]. The LSRII flow cytometer (BD Biosciences) at the Flow Cytometry Resource Facility, Princeton University, was used to measure the fluorescent intensities of both dyes in response to antibiotic treatment. 100,000 events were recorded for each data file. Gates for permeabilization were determined using polymixin B (Sigma-Aldrich P1004) and untreated controls. Gates for depolarization were determined using carbonyl cyanide m-chlorophenyl hydrazone (CCCP) as a positive control. Data were analysed using FlowJo v.10 software.

Haemolysis = type: cell-based, sheep; conditions: sheep, defibrinated sheep red blood cells, 1 h, vs Triton X-100 100% lysis
Procedure: (§2) Samples were treated at 37 °C with shaking for 1 h and then centrifuged. Supernatants were collected and absorbances were measured at 405 nm in a Tecan InfiniteM200 Pro microplate reader.

[3] = system: P. aeruginosa PA14 folate metabolism (dUMP, AICAR, GAR); assay: Metabolomics (LC–MS) of treated PA14; type: cell-based, Pseudomonas aeruginosa; conditions: PA14, 15 min
Procedure: Metabolites were extracted by vacuum filtering 15 ml of treated cells using 0.45 μm HNWP Millipore nylon membranes and placing the filters into an ice-cold quenching solution of 40:40:20 methanol:acetonitrile:H2O. Extracts were kept on dry ice for 1 h and centrifuged at 16,000 g for 1 h at 4 °C. The supernatant was kept at -80 °C until mass spectrometry analysis. Liquid chromatography-mass spectrometry (LC-MS) analysis of metabolites was performed on an Orbitrap Exploris 240 mass spectrometer coupled with hydrophilic interaction liquid chromatography (HILIC)[68]. […] Waters 196006724), with a gradient of solvent A (95 vol. % H2O, 5 vol. % acetonitrile, with 20 mM ammonium acetate and 20 mM ammonium hydroxide, pH 9.4) and solvent B (acetonitrile). Flow rate was 0.15 ml min^-1 and column temperature was set at 25 °C. […] Raw mass spectrometry data were converted to mzXML format by MSConvert (ProteoWizard). Pick-peaking was done on […].0.8.0, Elucidata).

[4] = system: P. aeruginosa PA14 mexB transposon mutant; assay: microbe, parasite or virus in culture; type: cell-based; conditions: Pseudomonas aeruginosa
Procedure: as §1
(§3) P. aeruginosa PA14 transposon mutants were generated by the Ausubel Lab (https://pa14.mgh.harvard.edu/cgi-bin/pa14/home.cgi)[67]. The MICs of fluorofolin and TMP against strains with disrupted MexA, MexB and OprM were determined as above and compared to the parental strain. As transposon mutants in MexB were represented twice in this collection, the MIC was confirmed across both mutant strains.

[5] = system: P. aeruginosa PA14 oprM transposon mutant; assay: microbe, parasite or virus in culture; type: cell-based; conditions: Pseudomonas aeruginosa
Procedure: as §1, §3

[6] = system: P. aeruginosa PA14 mexA transposon mutant; assay: microbe, parasite or virus in culture; type: cell-based; conditions: Pseudomonas aeruginosa
Procedure: as §1, §3

P. aeruginosa PA14 [7] = assay: Colony-forming units counting after antibiotic treatment; type: cell-based, Pseudomonas aeruginosa; conditions: 2× MIC (fluorofolin 6.2, TMP 250, polymixin B 4 μg ml^−1)
Procedure: P. aeruginosa PA14 overnight cultures were diluted 1:100 and grown to exponential phase (OD600 = 0.4–0.6). Cultures were diluted 1:10 and treated with antibiotic. At each time point, 150 μl of culture was removed, serial diluted 1:10 six times and plated onto LB agar plates. Plates were grown overnight at 37 °C, after which visible colonies were counted. C.f.u.s ml^−1 are reported from dilutions in which ~10–100 single colonies were visible.

P. aeruginosa = assay: MIC of known DHFR inhibitors against P. aeruginosa; type: cell-based, Pseudomonas aeruginosa; conditions: strain not named
sheep red blood cells = assay: Haemolysis; type: cell-based; conditions: 1 h, vs Triton X-100 100% lysis
Procedure: as §2

PA14 = assay: Checkerboard assay fluorofolin / sulfamethoxazole; type: cell-based, Pseudomonas aeruginosa; conditions: PA14, Fluorofolin 0 ug/mL
Procedure: Cells were seeded in a similar manner as described above for MIC calculations. […] Fractional inhibitory concentrations (FICs) were calculated as [[…], where [fluorofolin] and [SMX] are the concentrations of compounds in a given well, which were divided by the concentration of drug at the MIC for each compound.

P. aeruginosa PA14 [8] = assay: In vivo PA14 murine thigh infection; conditions: neutropenic CD-1 mice, 24 h post infection; fluorofolin 25 mg kg^−1 subcutaneous and/or SMX 100 mg kg^−1 intraperitoneal at 1 and 12 h; one value per mouse
Source text: For P. aeruginosa thigh infection model and maximum tolerated dose (MTD) studies, care and handling of female 5–6-week-old CD-1 conformed to Institutional Animal Care and Use Committee (IACUC) policies as carried out at the University of North Texas Health Science Center (Fort Worth, Texas) under UNTHSC IACUC-approved protocol nos. IACUC-2021-0003 and IACUC-2020-0039. Rodents were fed either base chow (Envigo) or base diet supplemented with 1.8 g kg^−1 thymidine (Sigma T9250) starting at 2 days before infection. All procedures were conducted in accordance with the UNTHSC IACUC-approved protocol. Animals were housed in rooms undergoing 10–15 air changes per hour. Air provided to the animal rooms was controlled for temperature and humidity and is fully monitored 24 h a day. Air pressure was balanced according to room use. Lighting was controlled in individual rooms by automatic timers with a standard 12 h on, 12 h off cycle.
Female 5–6-week-old CD-1 mice were rendered neutropenic by intraperitoneal cyclophosphamide treatment (Cytoxan) before this study. On day 0, mice were infected intramuscularly with 5.33 log c.f.u. per thigh PA14. Mice were treated subcutaneously with fluorofolin at 1 and 12 h post infection. For co-treatment, mice were treated with SMX intraperitoneally at 1 and 12 h post infection. […] In vivo efficacy was evaluated by the UNTHSC.

[9] = 2× MIC (fluorofolin 6.3, TMP 250 μg ml^−1), one value per replicate

In the case of `COc1cc(Cc2cnc(N)nc2N)cc(OC)c1OC` [Trimethoprim, trimethoprim, reference compound], the MIC ([1]; P. aeruginosa PA14) was 125 µg/mL, the MIC ([1]; Pseudomonas aeruginosa, Wildtype PA14, control for each drug stock, read-out: MIC) was 125 µg/mL and the “Permeabilized (TO-PRO-3 gate)” value (P. aeruginosa PA14 [2]) was 0.42. For the same compound, the hemolysis at 1 h, 0.78125 ug/mL (Haemolysis; 0.78125 ug/mL) was 0.423%, the hemolysis at 1 h, 1.5625 ug/mL (Haemolysis; 1.5625 ug/mL) was 0.123% and the hemolysis at 1 h, 3.125 ug/mL (Haemolysis; 3.125 ug/mL) was 0.0766%. The hemolysis at 1 h, 6.25 ug/mL (Haemolysis; 6.25 ug/mL) was 1.27%, the hemolysis at 1 h, 12.5 ug/mL (Haemolysis; 12.5 ug/mL) was 0.258% and the hemolysis at 1 h, 25 ug/mL (Haemolysis; 25 ug/mL) was 0.606%. The hemolysis at 1 h, 50 ug/mL (Haemolysis; 50 ug/mL) was 4.08%, the “change of AICAR and dUMP” value ([3]; 2× MIC) was “significant upregulation” and the “Normalized Ion Counts AICAR” value [3, 9] was 1099947 and 1907694 and 151411. The “Normalized Ion Counts GAR” value [3, 9] was 163607 and 121038 and 24881.8, the “Normalized Ion Counts dUMP” value [3, 9] was 2000000 and 3000000 and the MIC [4] was 25 µg/mL. For the same compound, the MIC [5] was 25 µg/mL, the MIC [6] was 50 µg/mL and the “PA14 CFU/mL, Mean” value (P. aeruginosa PA14 [7]; Time 0 h) was 197000 CFU/mL. For the same compound, the “PA14 CFU/mL, Mean” value (P. aeruginosa PA14 [7]; Time 1 h) was 178000 CFU/mL, the “PA14 CFU/mL, Mean” value (P. aeruginosa PA14 [7]; Time 2 h) was 187000 CFU/mL and the “PA14 CFU/mL, Mean” value (P. aeruginosa PA14 [7]; Time 4 h) was 338889 CFU/mL.

For `Nc1nc(N)c2c(ccc3c2ccn3Cc2ccc(-c3ccccc3)cc2)n1` [IRS-16], the MIC (P. aeruginosa) was greater than 50 µg/mL, the “% Hemolysis, Mean” value (sheep red blood cells; 0.78125 ug/mL) was 6.068% and the “% Hemolysis, Mean” value (sheep red blood cells; 1.5625 ug/mL) was 12.9642%. For the same compound, the “% Hemolysis, Mean” value (sheep red blood cells; 3.125 ug/mL) was 26.947%, the “% Hemolysis, Mean” value (sheep red blood cells; 6.25 ug/mL) was 25.0196% and the “% Hemolysis, Mean” value (sheep red blood cells; 12.5 ug/mL) was 26.9567%. For the same compound, the “% Hemolysis, Mean” value (sheep red blood cells; 25 ug/mL) was 30.487% and the “% Hemolysis, Mean” value (sheep red blood cells; 50 ug/mL) was 39.1325%.

In the case of `Cc1cc(NS(=O)(=O)c2ccc(N)cc2)no1` [SMX, Sulfamethoxazole, reference compound], the FIC index (PA14; SMX 625.00 ug/mL) was 1, the FIC index (PA14; SMX 1250.00 ug/mL) was 2 and the “PA14 load in thigh” value (P. aeruginosa PA14 [8]) was 8.8 log 10(CFU/ mouse) and 8.33 log 10(CFU/ mouse) and 8.57 log 10(CFU/ mouse) and 7.94 log 10(CFU/ mouse).
